“Also recorded” adds a separate entry of the source. Like-named read-outs stand apart in the source and are kept apart here.
Assays:
[1] = cited from earlier work
[2] = test system: ependymoblastoma; details: intratumoral injection(s), up to ten; suspended in 0.4% aqueous methylcellulose in most suitable formulation; cited from earlier work
[3] = delivered systemically; cited from earlier work
[4] = Operative mortality following intratumoral injection; type: in vivo, rat (male CDF, Fischer 344); details: following intratumoral BCNU solution injection; 4/72
Experimental: Rats were anesthetized with ether and pentobarbital sodium (25-30 mg/kg) and placed into the stereotactic frame. The clips and bone wax were carefully removed. The BCNU solution was delivered directly into the tumor through a
Hamilton microsyringe set to the same coordinates and using the same technique as used in the initial tumor implantation. As before, the operative field was cleaned with povidone-iodine solution and the scalp was closed with clips.
The following paradigm was used to assess therapeutic efficacy of the intra-tumorally delivered BCNU antineoplastic solution. All animals received tumor implantation on day zero (0). Controls received no treatment, vehicle controls received a single intratumoral injection of absolute ethanol on day 7. One experimental group received a single injection of intratumoral BCN dissolved in absolute ethanol at a dose of 5 mg/kg body weight on day 7.

[5] = Lethal dose of BCNU; type: in vivo; details: intraperitoneal BCNU in rats
Experimental: All intratumoral injections used this 66.7 mg/ml formulation directly. This concentration is about three to four logs greater than the tumoricidal dose 50%. […] This cannot be extrapolated to man, however, because of differences in cross-species toxicity.

[6] = Stability of BCNU in ethanol, organic vehicles and aqueous solution; type: physicochemical; details: ethanol vehicle of the exemplary solution
[7] = cited from earlier work; remark: listed apart in the source
[8] = test system: tumor cells; experiment: Tumoricidal dose 50% (TD50) comparison; details: 66.7 mg/ml BCNU in absolute ethanol
From the text: Operationally, where cytotoxic, the antineoplastic agent is preferably dissolved in the organic solvent to a concentration such that when a therapeutically effective volume of the antineoplastic solution of the invention is delivered into a neoplastic mass, there results a dose of the agent solute in said mass of at least two logs greater than its tumoricidal dose 50% (TD50), that is, the concentration of agent in said mass that kills 50% of the tumor cells. This ensures that a supralethal concentration of the agent is delivered throughout at least a substantial volume of the tumor mass when the resulting antineoplastic solution is injected directly into the substance of the tumor. As the organic vehicle permeates the tumor mass it transports a therapeutically effective, neoplastically lethal concentration of the cytotoxic agent solute therewith. In this way high levels of the cytotoxic antineoplastic agent can be delivered discretely and with relative safety to the tumor mass. In another sense the water miscible organic vehicle component of the solution can be considered to increase the solubility of the agent within the tumor mass, thereby allowing therapeutically effective toxic levels of the antineoplastic agent to invest the tumor. […]

[9] = rat, in vivo; cited from earlier work
[10] = test system: T9 gliosarcoma; details: cited from earlier work
[11] = cited from earlier work; remark: listed apart in the source
[12] = test system: T9 gliosarcoma; experiment: Survival of rats bearing intracerebral T9 gliosarcoma after intratumoral BCNU solution; type: in vivo, rat (male CDF, Fischer 344); details: for % ILS (percent increase in life span): vs control
[13] = Group 4: IT BCNU 5 mg/kg day 7 + IP BCNU 5 mg/kg day 12, n=14

C[C@H]1CC[C@H](NC(=O)N(CCCl)N=O)CC1 [Me-CCNU, 1-(2-chloroethyl)-3-(trans-4-methylcyclohexyl)-1-nitrosourea]
water solubility [1]: water insoluble
increase in life span [2]: only modest increases in life span

bleomycin
organ specific toxicity [3]: lung toxicity

O=NN(CCCl)C(=O)NC1CCCCC1 [CCNU, 1-(2-chloroethyl)-3-cyclohexyl-1-nitrosourea]
water solubility [1]: water insoluble
increase in life span [2]: only modest increases in life span

O=NN(CCCl)C(=O)NCCCl [BCNU, 1,3-bis(2-chloroethyl)-1-nitrosourea]
Operative mortality [4]: 5.5%
water solubility [1]: inherently low water solubility
dose of 5 mg/kg as percentage of the LD10 [5]: ~40%
solubility in ethanol [6]: soluble to highly cytotoxic levels in ethanol
stability and bioavailability in ethanol [6]: remains stable and bioavailable therein
half life in serum [7]: about 15 minutes
concentration of the formulation above the tumoricidal dose 50% [8]: about three to four
lethal dose 10% [9]: 13.3 mg/kg
ILS ([10]; BCNU 5 mg/kg, delivered intra-arterially): 57%
improvement in life span ([10]; BCNU 5 mg/kg, delivered systemically): no improvement in life span
ILS ([10]; BCNU 13.3 mg/kg, delivered intravenously or intra-arterially): 180%
cures in animals bearing this tumor, prior to this experiment ([10]; any mode of delivery previously known): neither BCNU nor any other antineoplastic agent has ever produced cures in animals bearing this tumor; also recorded: neither BCNU nor any other single antineoplastic agent has ever been known to produce a single cure in this tumor model
stability in aqueous solution ([11]; aqueous solution): not very stable in aqueous solution
stability in ethanol ([11]; ethanol): stable in ethanol
stability in organic water miscible solvent vehicles ([11]; organic water miscible solvent vehicles, compared with aqueous solution): far more stable in the organic water miscible solvent vehicles
% ILS (percent increase in life span) ([12]; Group 3: single IT BCNU 5 mg/kg in absolute ethanol, day 7, n=42): 322%
% Cures ([12]; Group 3: single IT BCNU 5 mg/kg, day 7, n=42): 43%
MDS (median day of survival following tumor implantation) ([12]; Group 3: single intratumoral (IT) injection of BCNU in absolute ethanol, 5 mg/kg, day 7, n=42): 76 days
% Cures [12, 13]: 36%
% ILS (percent increase in life span) [12, 13]: 472%
MDS (median day of survival following tumor implantation) ([12]; Group 4: IT BCNU in absolute ethanol 5 mg/kg day 7 + IP BCNU 5 mg/kg in 7.5% aqueous ethanol day 12, n=14): 103 days
animals living a normal lifespan ([12]; Groups 3 + 4, 600-700 days): nineteen
animals sacrificed healthy, no observable viable T9 gliosarcoma ([12]; Groups 3 + 4, days 121, 136, 307, 384): four
% Cures ([12]; Groups 3 + 4 combined, n=56): 41%
MDS (median day of survival following tumor implantation) ([12]; Groups 3 + 4 combined, n=56): 96 days
% ILS (percent increase in life span) ([12]; Groups 3 + 4 combined, n=56): 433%
therapeutic benefit of adding intraperitoneal BCNU to intratumoral BCNU solution ([12]; IT + IP vs IT only): did not statistically enhance the therapeutic benefit
animals which live a normal life span ([12]; intratumoral BCNU solution treated group, 600-700 days): 41%
animals that die, phase one ([12]; intratumoral BCNU solution treated group, days 18-24): 23%
animals that die, second phase ([12]; intratumoral BCNU solution treated group, days 25 to 166): 30%
animals that die, third phase ([12]; intratumoral BCNU solution treated group, days 251-325): 5%

COc1cccc2c1C(=O)c1c(O)c3c(c(O)c1C2=O)C[C@@](O)(C(=O)CO)C[C@@H]3O[C@H]1C[C@H](N)[C@H](O)[C@H](C)O1 [adriamycin]
organ specific toxicity [3]: cardiotoxicity
